Test system: HGS tumor model
Test: anti-tumor activity in HGS tumor model
Format: in vivo
Conditions: animals treated with 20/kg of compound
Text: […]

Q: `C=CC(=O)N1CCN(CCCn2c(=O)c(-c3c(Cl)c(OC)cc(OC)c3Cl)cc3cnc(NC)nc32)CC1` [8-(3-(4-acryloylpiperazin-1-yl)propyl)-6-(2,6-dichloro-3,5-dimethoxyphenyl)-2-(methylamino)pyrido[2,3-d]pyrimidin-7(8H)-one] was tested. Which “antitumor activity” value did it give?
A: Its value is “significant antitumor activity and induced tumor regression”.

Q: And the tumor size (day 42 after inoculation)?
A: Its tumor size is 55 mm3.
